Data reported in patent US20250041373A1, “EXTRACTION METHOD OF HIBISCUS SABDARIFFA L. TAITUNG NO. 6, HIBISCUS SABDARIFFA L. TAITUNG NO. 6 EXTRACT USING THE SAME, AND USES THEREOF” (WEL-BLOOM BIO-TECH CORPORATION, priority 2023, published 2025).

Test system: B16-F10 melanoma cells
Experiment: melanin content analysis in α-MSH-treated B16-F10 melanoma cells
Format: cell-based
Conditions: co-treatment with 500 nM α-MSH; positive control, concentration not given; FIG. 6
Experimental: Further, in the present embodiment, an ability of the Hibiscus sabdariffa L. ‘TAITUNG NO. 6’ extract to inhibit melanin production is evaluated by a melanin content analysis, and a method thereof is as follows. B16-F10 melanoma cells (1×10^5) are seeded in a 24-well culture plate and treated with 500 nM α-melanocyte stimulating hormone (α-MSH) at 37° C. for 24 hours. Then, these cells are treated with various concentrations of the Hibiscus sabdariffa L. ‘TAITUNG NO. 6’ extract for 48 hours, and are treated with trypsin after being rinsed with PBS. A cell pellet is collected by centrifugation at 10,000 g for 20 minutes at a room temperature, and is then lysed with 1N NaOH for 60 minutes. The melanin content is analyzed by comparing an absorbance value of a test sample at 405 nm with a standard curve obtained by using a synthetic melanin.

With O=c1cc(CO)occ1O [kojic acid] the “melanin content of the melanoma cells” value was “significantly decreased”.
